Results as given in ChEMBL document CHEMBL3112480, “γ-Alkylidene-γ-lactones and isobutylpyrrol-2(5H)-ones analogues to rubrolides as inhibitors of biofilm formation by gram-positive and gram-negative bacteria” (Bioorg Med Chem Lett, 2014).

Key:
Streptococcus mutans [1] = assay: Antibacterial activity against Streptococcus mutans ATCC 25175 assessed as effect on planktonic growth at 21.9 ug/ml after 20 hrs relative to control; format: functional
[2] = test system: Staphylococcus epidermidis; assay: Antibacterial activity against Staphylococcus epidermidis ATCC 35547 assessed as effect on planktonic growth at 21.9 ug/ml after 20 hrs relative to control; format: functional
Streptococcus mutans [3] = assay: Antibacterial activity against Streptococcus mutans ATCC 25175 assessed as effect on planktonic growth at 0.34 ug/ml after 20 hrs relative to control; format: functional
Staphylococcus aureus [4] = assay: Antibacterial activity against Staphylococcus aureus ATCC 25923 assessed as effect on planktonic growth at 0.34 ug/ml after 20 hrs relative to control; format: functional
Streptococcus mutans [5] = assay: Antibacterial activity against Streptococcus mutans ATCC 25175 assessed as effect on planktonic growth at 0.17 ug/ml after 20 hrs relative to control; format: functional
Pseudomonas aeruginosa [6] = assay: Antibacterial activity against Pseudomonas aeruginosa ATCC 27853 assessed as effect on planktonic growth at 0.34 ug/ml after 20 hrs relative to control; format: functional
Staphylococcus aureus [7] = assay: Antibacterial activity against Staphylococcus aureus ATCC 25923 assessed as effect on planktonic growth at 21.9 ug/ml after 20 hrs relative to control; format: functional
Staphylococcus aureus [8] = assay: Antibacterial activity against Staphylococcus aureus ATCC 25923 assessed as effect on planktonic growth at 43.8 ug/ml after 20 hrs relative to control; format: functional
Streptococcus mutans [9] = assay: Antibacterial activity against Streptococcus mutans ATCC 25175 assessed as effect on planktonic growth at 2.73 ug/ml after 20 hrs relative to control; format: functional
Streptococcus mutans [10] = assay: Antibacterial activity against Streptococcus mutans ATCC 25175 assessed as effect on planktonic growth at 0.68 ug/ml after 20 hrs relative to control; format: functional
[11] = test system: Staphylococcus epidermidis; assay: Antibacterial activity against Staphylococcus epidermidis ATCC 35547 assessed as effect on planktonic growth at 87.5 ug/ml after 20 hrs relative to control; format: functional
Pseudomonas aeruginosa [12] = assay: Antibacterial activity against Pseudomonas aeruginosa ATCC 27853 assessed as effect on planktonic growth at 5.5 ug/ml after 20 hrs relative to control; format: functional
Pseudomonas aeruginosa [13] = assay: Antibacterial activity against Pseudomonas aeruginosa ATCC 27853 assessed as effect on planktonic growth at 0.17 ug/ml after 20 hrs relative to control; format: functional
Streptococcus mutans [14] = assay: Antibacterial activity against Streptococcus mutans ATCC 25175 assessed as effect on planktonic growth at 5.5 ug/ml after 20 hrs relative to control; format: functional
[15] = test system: Staphylococcus epidermidis; assay: Antibacterial activity against Staphylococcus epidermidis ATCC 35547 assessed as inhibition of biofilm formation after 20 hrs by crystal-violet staining method; format: functional, organism-based
Pseudomonas aeruginosa [16] = assay: Antibacterial activity against Pseudomonas aeruginosa ATCC 27853 assessed as effect on planktonic growth at 10.9 ug/ml after 20 hrs relative to control; format: functional
Pseudomonas aeruginosa [17] = assay: Antibacterial activity against Pseudomonas aeruginosa ATCC 27853 assessed as effect on planktonic growth at 43.8 ug/ml after 20 hrs relative to control; format: functional
[18] = test system: Staphylococcus epidermidis; assay: Antibacterial activity against Staphylococcus epidermidis ATCC 35547 assessed as effect on planktonic growth at 0.68 ug/ml after 20 hrs relative to control; format: functional
Streptococcus mutans [19] = assay: Antibacterial activity against Streptococcus mutans ATCC 25175 assessed as effect on planktonic growth at 10.9 ug/ml after 20 hrs relative to control; format: functional
Pseudomonas aeruginosa [20] = assay: Antibacterial activity against Pseudomonas aeruginosa ATCC 27853 assessed as effect on planktonic growth at 2.73 ug/ml after 20 hrs relative to control; format: functional
[21] = test system: Staphylococcus epidermidis; assay: Antibacterial activity against Staphylococcus epidermidis ATCC 35547 assessed as effect on planktonic growth at 0.34 ug/ml after 20 hrs relative to control; format: functional
Staphylococcus aureus [22] = assay: Antibacterial activity against Staphylococcus aureus ATCC 25923 assessed as effect on planktonic growth at 0.68 ug/ml after 20 hrs relative to control; format: functional
Streptococcus mutans [23] = assay: Antibacterial activity against Streptococcus mutans ATCC 25175 assessed as effect on planktonic growth at 43.8 ug/ml after 20 hrs relative to control; format: functional
Pseudomonas aeruginosa [24] = assay: Antibacterial activity against Pseudomonas aeruginosa ATCC 27853 assessed as effect on planktonic growth at 0.68 ug/ml after 20 hrs relative to control; format: functional
Staphylococcus aureus [25] = assay: Antibacterial activity against Staphylococcus aureus ATCC 25923 assessed as effect on planktonic growth at 0.17 ug/ml after 20 hrs relative to control; format: functional
Staphylococcus aureus [26] = assay: Antibacterial activity against Staphylococcus aureus ATCC 25923 assessed as effect on planktonic growth at 2.73 ug/ml after 20 hrs relative to control; format: functional
Staphylococcus aureus [27] = assay: Antibacterial activity against Staphylococcus aureus ATCC 25923 assessed as effect on planktonic growth at 87.5 ug/ml after 20 hrs relative to control; format: functional
Staphylococcus aureus [28] = assay: Antibacterial activity against Staphylococcus aureus ATCC 25923 assessed as effect on planktonic growth at 5.5 ug/ml after 20 hrs relative to control; format: functional
[29] = test system: Staphylococcus epidermidis; assay: Antibacterial activity against Staphylococcus epidermidis ATCC 35547 assessed as effect on planktonic growth at 1.37 ug/ml after 20 hrs relative to control; format: functional
[30] = test system: Staphylococcus epidermidis; assay: Antibacterial activity against Staphylococcus epidermidis ATCC 35547 assessed as effect on planktonic growth at 43.8 ug/ml after 20 hrs relative to control; format: functional
[31] = test system: Staphylococcus epidermidis; assay: Antibacterial activity against Staphylococcus epidermidis ATCC 35547 assessed as effect on planktonic growth at 0.17 ug/ml after 20 hrs relative to control; format: functional
[32] = test system: Staphylococcus epidermidis; assay: Antibacterial activity against Staphylococcus epidermidis ATCC 35547 assessed as effect on planktonic growth at 5.5 ug/ml after 20 hrs relative to control; format: functional
Pseudomonas aeruginosa [33] = assay: Antibacterial activity against Pseudomonas aeruginosa ATCC 27853 assessed as effect on planktonic growth at 21.9 ug/ml after 20 hrs relative to control; format: functional
Staphylococcus aureus [34] = assay: Antibacterial activity against Staphylococcus aureus ATCC 25923 assessed as effect on planktonic growth at 1.37 ug/ml after 20 hrs relative to control; format: functional
[35] = test system: Staphylococcus epidermidis; assay: Antibacterial activity against Staphylococcus epidermidis ATCC 35547 assessed as effect on planktonic growth at 2.73 ug/ml after 20 hrs relative to control; format: functional
Streptococcus mutans [36] = assay: Antibacterial activity against Streptococcus mutans ATCC 25175 assessed as effect on planktonic growth at 1.37 ug/ml after 20 hrs relative to control; format: functional
Staphylococcus aureus [37] = assay: Antibacterial activity against Staphylococcus aureus ATCC 25923 assessed as effect on planktonic growth at 10.9 ug/ml after 20 hrs relative to control; format: functional
Pseudomonas aeruginosa [38] = assay: Antibacterial activity against Pseudomonas aeruginosa ATCC 27853 assessed as effect on planktonic growth at 1.37 ug/ml after 20 hrs relative to control; format: functional
Pseudomonas aeruginosa [39] = assay: Antibacterial activity against Pseudomonas aeruginosa ATCC 27853 assessed as inhibition of biofilm formation after 20 hrs by crystal-violet staining method; format: functional, organism-based
Streptococcus mutans [40] = assay: Antibacterial activity against Streptococcus mutans ATCC 25175 assessed as effect on planktonic growth at 87.5 ug/ml after 20 hrs relative to control; format: functional
Pseudomonas aeruginosa [41] = assay: Antibacterial activity against Pseudomonas aeruginosa ATCC 27853 assessed as effect on planktonic growth at 87.5 ug/ml after 20 hrs relative to control; format: functional
[42] = test system: Staphylococcus epidermidis; assay: Antibacterial activity against Staphylococcus epidermidis ATCC 35547 assessed as effect on planktonic growth at 10.9 ug/ml after 20 hrs relative to control; format: functional

COc1ccc(C)cc1C1=C(Br)C(=O)O/C1=C\c1ccccc1Cl
Activity (Streptococcus mutans [1]): -3.3%
Activity [2]: 15.8%
Activity (Streptococcus mutans [3]): 6.4%
Activity (Staphylococcus aureus [4]): 8.3%
Activity (Streptococcus mutans [5]): 1.5%
Activity (Pseudomonas aeruginosa [6]): -8.6%
Activity (Staphylococcus aureus [7]): 7.3%
Activity (Staphylococcus aureus [8]): 25.3%
Activity (Streptococcus mutans [9]): -4.1%
Activity (Streptococcus mutans [10]): 5.6%
Activity [11]: 70.5%
Activity (Pseudomonas aeruginosa [12]): -5.3%
Activity (Pseudomonas aeruginosa [13]): -3.8%
Activity (Streptococcus mutans [14]): 0.8%
inhibition [15]: Dose-dependent effect
Activity (Pseudomonas aeruginosa [16]): -10.2%
Activity (Pseudomonas aeruginosa [17]): -2%
Activity [18]: 0.9%
Activity (Streptococcus mutans [19]): -13.6%
Activity (Pseudomonas aeruginosa [20]): -4.1%
Activity [21]: -0.1%
Activity (Staphylococcus aureus [22]): 10.9%
Activity (Streptococcus mutans [23]): 7.4%
Activity (Pseudomonas aeruginosa [24]): -7.8%
Activity (Staphylococcus aureus [25]): 6%
Activity (Staphylococcus aureus [26]): 16.9%
Activity (Staphylococcus aureus [27]): 37%
Activity (Staphylococcus aureus [28]): 8.3%
Activity [29]: 8.5%
Activity [30]: 36.5%
Activity [31]: -1.6%
Activity [32]: 3.7%
Activity (Pseudomonas aeruginosa [33]): -6.8%
Activity (Staphylococcus aureus [34]): 16.9%
Activity [35]: -0.7%
Activity (Streptococcus mutans [36]): 1.5%
Activity (Staphylococcus aureus [37]): 10.9%
Activity (Pseudomonas aeruginosa [38]): -7.5%
inhibition (Pseudomonas aeruginosa [39]): Dose-dependent effect
Activity (Streptococcus mutans [40]): 18.9%
Activity (Pseudomonas aeruginosa [41]): 11.1%
Activity [42]: 13.5%

COc1ccccc1C1=C(Br)C(=O)O/C1=C\c1ccc(C(F)(F)F)cc1
Activity (Streptococcus mutans [1]): 0.6%
Activity [2]: 18.7%
Activity (Streptococcus mutans [3]): 1.1%
Activity (Staphylococcus aureus [4]): -2%
Activity (Streptococcus mutans [5]): -3.1%
Activity (Pseudomonas aeruginosa [6]): -0.4%
Activity (Staphylococcus aureus [7]): 26.7%
Activity (Staphylococcus aureus [8]): 47.3%
Activity (Streptococcus mutans [9]): -4%
Activity (Streptococcus mutans [10]): -1.7%
Activity [11]: 14.7%
Activity (Pseudomonas aeruginosa [12]): 7.9%
Activity (Pseudomonas aeruginosa [13]): -1.3%
Activity (Streptococcus mutans [14]): -4.8%
inhibition [15]: Dose-dependent effect
IC50 ([15]; ATCC 35547, 20 h): > 87.5 µg/mL
Activity (Pseudomonas aeruginosa [16]): 49.9%
Activity (Pseudomonas aeruginosa [17]): 34.3%
Activity [18]: -16.5%
Activity (Streptococcus mutans [19]): -9.3%
Activity (Pseudomonas aeruginosa [20]): -7%
Activity [21]: -14.8%
Activity (Staphylococcus aureus [22]): -2.3%
Activity (Streptococcus mutans [23]): 21.5%
Activity (Pseudomonas aeruginosa [24]): -1.3%
Activity (Staphylococcus aureus [25]): -3.6%
Activity (Staphylococcus aureus [26]): 6.6%
Activity (Staphylococcus aureus [27]): 81.2%
Activity (Staphylococcus aureus [28]): 9.9%
Activity [29]: 2.9%
Activity [30]: 30.7%
Activity [31]: -12.1%
Activity [32]: -9.1%
Activity (Pseudomonas aeruginosa [33]): 58%
Activity (Staphylococcus aureus [34]): -0.5%
Activity [35]: 12.9%
Activity (Streptococcus mutans [36]): -6.5%
Activity (Staphylococcus aureus [37]): 9.7%
Activity (Pseudomonas aeruginosa [38]): -5.7%
inhibition (Pseudomonas aeruginosa [39]): Dose-dependent effect
IC50 (Pseudomonas aeruginosa [39]; ATCC 27853, 20 h): > 87.5 µg/mL
Activity (Streptococcus mutans [40]): 58.9%
Activity (Pseudomonas aeruginosa [41]): 15.1%
Activity [42]: 10.3%
